Target: MEK1 (Homo sapiens, UniProt Q02750)
Assay: isolated enzyme assay, MEK1 inhibition
Type: biochemical
Details: read-out: 50% inhibition (IC50) value
Text: The compound of Formula (I) is 6-(4-bromo-2-fluorophenylamino)-7-fluoro-3-methyl-3H-benzoimidazole-5-carboxylic acid (2-hydroxyethoxy)-amide (COMPOUND A). The compound of Formula (I) is described in PCT Application No. WO 03/077914, which is hereby incorporated by reference in its entirety hereto, and methods for its preparation have been described, for example, in Example 18 therein.

Sequence of MEK1 (Q02750 whole entry, species assumed): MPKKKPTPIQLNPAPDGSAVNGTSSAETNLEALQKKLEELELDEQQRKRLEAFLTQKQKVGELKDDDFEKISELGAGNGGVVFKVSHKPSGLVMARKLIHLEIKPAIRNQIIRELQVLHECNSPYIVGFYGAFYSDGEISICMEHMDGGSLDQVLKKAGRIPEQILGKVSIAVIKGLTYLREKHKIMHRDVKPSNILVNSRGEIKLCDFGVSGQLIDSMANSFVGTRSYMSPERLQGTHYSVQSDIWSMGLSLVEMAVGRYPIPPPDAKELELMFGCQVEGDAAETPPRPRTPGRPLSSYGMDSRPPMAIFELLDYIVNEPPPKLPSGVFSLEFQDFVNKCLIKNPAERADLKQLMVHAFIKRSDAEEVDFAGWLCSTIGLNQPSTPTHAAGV

IC50: 12 nM
Structure (SMILES): Cn1cnc2c(F)c(Nc3ccc(Br)cc3F)c(C(=O)NOCCO)cc21 [COMPOUND A, 6-(4-bromo-2-fluorophenylamino)-7-fluoro-3-methyl-3H-benzoimidazole-5-carboxylic acid (2-hydroxyethoxy)-amide]

From US9034909B2, “Use of organic compound for the treatment of Noonan Syndrome” (Novartis AG, priority 2011, dated 2015)
